The source of these data is patent EP1280522B1, “COMBINATION OF CARBOXYALKYLETHERS WITH ANTIHYPERTENSIVES AND PHARMACEUTICAL USE” (WARNER-LAMBERT COMPANY, priority 2000, dated 2001).

“And” between values parts separate entries of the source, which are not always exact repeats. Identical values can stand only once.

The subject of experiment [1] is spontaneously hypertensive rats (SHR). As to the kind of experiment: Antihypertensive effect on MABP in SHR by radiotelemetry: CI-1027, quinapril and their combination (Example 1). The class given is in vivo. The following applies: for MABP: peak MABP 2-4 hours postdose. As to the method:
The antihypertensive effects of the carboxyalkylether compound of Formula III (CI-1027), alone and in combination with an antihypertensive agent such as quinapril (CI-906), were evaluated in rats according to the following protocol.
Male spontaneously hypertensive rats (SHR, 15-20 weeks old, Charles River Laboratories, Wilmington, Massachusetts) were prepared with indwelling aortic catheters and radiotransmitters (Data Sciences International, Saint Paul, Minnesota). The radiotransmitters provided continuous measurement of aortic blood pressure waveform. From the aortic blood pressure waveform a Ponemah (Gould Instruments Inc, Valley View, Ohio) computer provided mean arterial blood pressure (MABP) and heart rate values continuously as one-minute averages. One-minute data was then summarized at 15-minute intervals using Excel (Microsoft Corporation, Redmond, Washington) spreadsheets. Animals were allowed food and water ad libitum. To allow for recovery following surgery, rats were not dosed for a minimum of 7 days. Day 0 predose blood pressures were obtained by averaging eight 15-minute MABP measurements made 2 hours before dosing. To obtain the peak response to treatment (Days 0, 12, 16, 19, and 22), the 15-minute MABP measurements in the interval between 2 and 4 hours post-dose were averaged.
Test compounds were given in a vehicle that contained 96% water, 3% carbomethocellulose (Sigma Chemical, Saint Louis, Missouri) and 1% tween 88 (polyoxyethylenesorbitan monooleate, Sigma Chemical). CI-1027 and quinapril monotherapy were administered at 8:30 AM daily by oral gavage in a volume of 2 mL/kg. The combination of CI-1027 and quinapril was given as a single gavage in a volume of 2 mL/kg.
The experiment was carried out over 22 days in 4 groups of animals. Group I served as a control and received 2 mL/kglday of vehicle for 22 consecutive days. Group II, used to determine the antihypertensive response to quinapril monotherapy, was given vehicle for the first 12 to 13 consecutive days. Then on Day 13 to 14 quinapril was added at a dose of 0.3 mg/kg/day for 3 to 4 consecutive days; the dose was then increased to 1 mg/kg/day for the next 3 days, and on the final 3 days, 3 mg/kg/day was administered. To determine the response to CI-1027 monotherapy, Groups III and IV received 12-day treatment with CI-1027 monotherapy at doses of 30 and 100 mg/kg/day, respectively. To determine the antihypertensive response to the combination therapy quinapril, was added to the ongoing CI-1027 treatment (Day 13-14) using the rising dose protocol described for Group II (quinapril monotherapy).

Experiment [2] deals with SHR. As to the kind of experiment: Antihypertensive effect on MABP in SHR by radiotelemetry: CI-1027, amlodipine and their combination (Example 2). Format: in vivo, rats. As to conditions: for MABP: peak MABP 4-6 hours postdose. As to the method:
The general procedure of Example 1 was followed to evaluate the antihypertensive efficacy of the carboxyalkylether CI-1027 alone and in combination with the calcium channel blocker amlodipine.
Male SHR (15-20 weeks old, Charles River Laboratories) were prepared with indwelling aortic catheters and radiotransmitters for continuous measurement of arterial blood pressure and heart rate. Animals were allowed food and water ad libitum. Before dosing all rats were given a minimum of 7 days for recovery from surgery.
The experiment was carried out over 22 days in 3 groups of SHR. Group I served as a control and received 2 mL/kg/day of vehicle (same as in Example 1) for 22 consecutive days. Group II, used to determined the antihypertensive response to amlodipine monotherapy, was given vehicle for the first 13 consecutive days. Then on Day 14, amlodipine was added at a dose of 0.3 mg/kg/day for 3 consecutive days. The dose was then increased to 1 mg/kg/day for the next 3 days, and on the final 3 days, 3 mg/kg/day was given. To determine the response to CI-1027 monotherapy, Group III received a 13-day treatment with CI-1027 monotherapy at a dose of 30 mg/kg/day. The antihypertensive response to the combination therapy was determined by the addition of amlodipine to ongoing CI-1027 treatment on Day 14.
Drugs were suspended or dissolved in vehicle that contains 96% water, 3% carboxymethocellulose, and 1% tween 88. Compounds were given at 9 AM daily by oral gavage in a volume of 2 mL/kg. The combination of CI-1027 and amlodipine was given as a single gavage in a volume of 2 mL/kg.

As for `CCOC(=O)[C@H](CCc1ccccc1)N[C@@H](C)C(=O)N1Cc2ccccc2C[C@H]1C(=O)O` [Quinapril, quinapril], the MABP in experiment [1] (Group 2, Day 16, Quinapril 0.3 mg/kg/day oral gavage, mean ± standard error) was 122 ± 5 mm Hg; in experiment [1] (Group 2, Day 19, Quinapril 1 mg/kg/day oral gavage, mean ± standard error), 121 ± 4 mm Hg; in experiment [1] (Group 2, Day 22, Quinapril 3 mg/kg/day oral gavage, mean ± standard error), 117 mm Hg and 117 ± 4 mm Hg. In addition, the “antihypertensive response at 3 mg/kg/day greater than noted at 0.3 mg/kg/day” value in experiment [1] (Quinapril monotherapy, rising dose protocol, difference between 3 and 0.3 mg/kg/day) was 5 mm Hg.

Regarding `CCOC(=O)C1=C(COCCN)NC(C)=C(C(=O)OC)C1c1ccccc1Cl` (stereo not drawn) [Amlodipine, amlodipine], the MABP result in experiment [2] (Group 2, Day 16, Amlodipine 0.3 mg/kg/day oral gavage, mean ± standard error) is given as “Amlodipine (0.3 mg/kg/day) 140 ± 6 mm Hg”; in experiment [2] (Group 2, Day 19, Amlodipine 1 mg/kg/day oral gavage), “Amlodipine (1 mg/kg/day) 131 ± 5 mm Hg”. Besides, in experiment [2] (Rattus norvegicus, po, amlodipine monotherapy (Group II), rising dose protocol, read-out: threshold antihypertensive dose), the minimal effective dose is 1 mg/kg/day.

Consider `CC(C)(CCCCOCCCCC(C)(C)C(=O)O)C(=O)O` [CI-1027], for which the antihypertensive activity entry in experiment [1] (CI-1027 monotherapy, 12 days, 30 and 100 mg/kg/day) was “modest”. Further, the MABP is 145 ± 4 mm Hg in experiment [1] (Group 3, Day 0, CI-1027 30 mg/kg/day oral gavage, predose 149 ± 3); 131 mm Hg and 131 ± 3 mm Hg in experiment [1] (Group 3, Day 12, CI-1027 30 mg/kg/day oral gavage, 30 mg/kg/day); 141 ± 4 mm Hg in experiment [1] (Group 4, Day 0, CI-1027 100 mg/kg/day oral gavage, predose 141 ± 4); “CI-1027 (30 mg/kg/day) 129 ± 4 mm Hg” in experiment [2] (Group 3, Day 0, CI-1027 30 mg/kg/day oral gavage, predose 131 ± 3).
